Measurements published in patent US20240269302A1, “NANOPARTICLE COMPRISING PEPTIDE-LIPID CONJUGATE FOR DELIVERING OLIGONUCLEOTIDE INTO TARGET CELL AND PHARMACEUTICAL COMPOSITION COMPRISING SAME” (NIBEC CO., LTD., priority 2021, published 2024).

System: KRAS mRNA
Test: Reduction of KRAS mRNA by KRAS siRNA delivered into cells, quantitative real-time PCR
Type: cell-based, human
Details: H358 cells, 100 nM, 16 hours, qRT-PCR, 18S rRNA as housekeeping gene
Method: H358 cells were seeded at a density of 70% in a 6-well plate. After 16 hours, cell starvation was performed overnight with DMEM containing 0.5% FBS. The cells were treated with a medium containing nanoparticles comprising KRAS siRNA and a peptide-lipid conjugate at a concentration of 100 nM for 16 hours. As a control, 100 nM of siRNA mixed with Lipofectamine was used.
Quantitative real-time PCR was performed in the following manner. For mRNA quantification, total RNA was isolated using the Qiagen RNeasy kit. cDNA was synthesized using Verso cDNA kit (Thermo Scientific) using 500 ng RNA. mRNA values were measured with a 7500 Fast Real-Time PCR System (Applied Biosystems) based on SYBR Green.
18S rRNA was used as a housekeeping gene (control gene). PCR was performed using reverse-transcribed RNA and 100 ng/μL of sense and antisense primers (total volume 20 μL) were used. 40 cycles were performed and each cycle included denaturation at 95° ° C. for 15 seconds, annealing for 1 minute, and extension at 60° ° C.

## siRNA alone: siRNA that inhibits the expression of KRAS (SEQ ID NO: 19 sense, SEQ ID NO: 20 antisense), without carrier (sense CAGCUAAUUCAGAAUCAUU; antisense AAUGAUUCUGAAUUAGCUG; listed as RNA, chemistry not given here)
  KRAS mRNA: no effect
